Measured values from patent US9822124B2, “Bicyclic heteroaromatic carboxamide compounds useful as Pim kinase inhibitors” (Incyte Corporation, priority 2014, dated 2017).

What was measured:
Type in all cases: biochemical
Pim-1 = Pim-1 (Homo sapiens (Human), UniProt P11309); assay: Pim-1 kinase assay (AlphaScreen, Biotin-labeled BAD peptide substrate); conditions: 1 mM ATP; read-out: Pim1 IC50
Experimental: (§1) Pim-1 and Pim-3 kinase assays—20 μL reactions were run in white 384 well polystyrene plates dotted with 0.8 μL compound/DMSO in the assay buffer (50 mM Tris, pH 7.5, 0.01% Tween-20, 5 mM MgCl2, 0.01% BSA, 5 mM DTT), containing 0.05 μM Biotin-labeled BAD peptide substrate (AnaSpec 62269), 1 mM ATP, and […] (Pim-1, Invitrogen PV3503) or […] (Pim-3, Millipore 14-738) enzyme for 1 h at 25° C. Reactions were stopped by addition of 10 μL STOP Buffer (150 mM Tris, pH=7.5, 150 mM NaCl, 75 mM EDTA, 0.01% Tween-20, 0.3% BSA) supplemented with Phospho-Bad (Ser112) Antibody (Cell Signaling 9291) diluted 666-fold, and Streptavidin donor beads (PerkinElmer 6760002) along with Protein-A acceptor beads (PerkinElmer 6760137) at 15 μg/mL each. Supplementation of the STOP buffer with beads and stopping the reactions were done under reduced light. Prior to the stopping reactions STOP buffer with beads was preincubated for 1 h in the dark at room temperature. After stopping the reactions, plates were incubated for 1 h in the dark at room temperature before reading on a PHERAstar FS plate reader (BMG Labtech) under reduced light.

Pim-2 = Pim-2 (Homo sapiens (Human), UniProt Q9P1W9); assay: Pim-2 kinase assay (TR-FRET, Fluorescein-labeled CREBtide peptide substrate); conditions: 1 mM ATP; read-out: Pim2 IC50
Pim-2, sequence (Q9P1W9 whole entry): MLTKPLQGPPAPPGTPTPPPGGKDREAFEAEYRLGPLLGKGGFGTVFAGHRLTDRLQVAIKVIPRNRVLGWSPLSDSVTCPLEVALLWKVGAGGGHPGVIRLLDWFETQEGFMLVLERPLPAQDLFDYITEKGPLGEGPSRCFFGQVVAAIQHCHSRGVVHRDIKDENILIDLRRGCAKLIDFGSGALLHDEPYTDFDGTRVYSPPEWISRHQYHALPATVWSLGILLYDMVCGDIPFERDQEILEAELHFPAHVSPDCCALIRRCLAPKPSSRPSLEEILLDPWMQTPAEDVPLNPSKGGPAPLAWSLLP
Experimental: Pim-2 kinase assay—20 μL reactions were run in white 384 well polystyrene plates dotted with 0.8 μL compound/DMSO in the assay buffer (50 mM Tris, pH 7.5, 0.01% Tween-20, 5 mM MgCl2, 0.01% BSA, 5 mM DTT), containing 0.05 μM Fluorescein-labeled CREBtide peptide substrate (Invitrogen PV3508), 1 mM ATP, and 1 nM enzyme (Invitrogen PV3649) for 2 h at 25° C. Reactions were stopped by addition of 10 μL TR-FRET Dilution Buffer (Invitrogen PV3574) with 30 mM EDTA and 1.5 nM LanthaScreen Tb-CREB pSer133 antibody (Invitrogen PV3566). After 30 min. incubation at room temperature, plates were read on a PHERAstar FS plate reader (BMG Labtech).

Pim-3 = Pim-3 (Homo sapiens (Human), UniProt Q86V86); assay: Pim-3 kinase assay (AlphaScreen, Biotin-labeled BAD peptide substrate); conditions: 1 mM ATP; read-out: Pim3 IC50
Experimental: as §1

Pim-1, sequence (P11309 whole entry): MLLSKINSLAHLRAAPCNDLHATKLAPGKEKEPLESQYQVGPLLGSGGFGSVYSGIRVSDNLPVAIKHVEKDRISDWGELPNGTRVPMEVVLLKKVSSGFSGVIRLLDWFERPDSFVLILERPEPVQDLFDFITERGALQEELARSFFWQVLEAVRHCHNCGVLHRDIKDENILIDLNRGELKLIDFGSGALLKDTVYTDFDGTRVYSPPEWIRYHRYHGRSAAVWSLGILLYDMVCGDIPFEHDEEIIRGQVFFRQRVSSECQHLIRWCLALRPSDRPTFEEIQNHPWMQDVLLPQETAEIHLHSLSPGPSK

| SMILES | IC50 (Pim-1) [µM] | IC50 (Pim-2) [µM] | IC50 (Pim-3) [µM] |
| --- | --- | --- | --- |
| CC(C)c1coc2ccc(C(=O)Nc3cnccc3N3C[C@H](C)C[C@H](N)C3)nc12 [Example 18, N-(4-((3S,5R)-3-Amino-5-methylpiperidin-1-yl)pyridin-3-yl)-3-isopropylfuro[3,2-b]pyridine-5-carboxamide] | ≤ 0.01 | ≤ 0.1 | ≤ 0.01 |
| C[C@@H]1C[C@H](N)CN(c2ccncc2NC(=O)c2ccc3occ(-c4c(F)cccc4F)c3n2)C1 [Example 19, N-(4-((3S,5R)-3-Amino-5-methylpiperidin-1-yl)pyridin-3-yl)-3-(2,6-difluorophenyl)furo[3,2-b]pyridine-5-carboxamide] | ≤ 0.01 | ≤ 0.1 | ≤ 0.01 |
| CCc1coc2ccc(C(=O)Nc3cnccc3N3C[C@H](C)C[C@H](N)C3)nc12 [Example 20, N-(4-((3S,5R)-3-Amino-5-methylpiperidin-1-yl)pyridin-3-yl)-3-ethylfuro[3,2-b]pyridine-5-carboxamide] | ≤ 0.01 | ≤ 0.1 | ≤ 0.01 |
| C[C@@H]1C[C@H](N)CN(c2ccncc2NC(=O)c2ccc3occ(-c4ccccc4F)c3n2)C1 [Example 21, N-(4-((3S,5R)-3-Amino-5-methylpiperidin-1-yl)pyridin-3-yl)-3-(2-fluorophenyl)furo[3,2-b]pyridine-5-carboxamide] | ≤ 0.01 | ≤ 0.1 | ≤ 0.01 |
| COc1ccc(F)c(-c2coc3ccc(C(=O)Nc4cnccc4N4C[C@H](C)C[C@H](N)C4)nc23)c1F [Example 22, N-(4-((3S,5R)-3-Amino-5-methylpiperidin-1-yl)pyridin-3-yl)-3-(2,6-difluoro-3-methoxyphenyl)furo[3,2-b]pyridine-5-carboxamide] | ≤ 0.01 | ≤ 0.1 | ≤ 0.01 |
| COc1ccc(-c2coc3ccc(C(=O)Nc4cnccc4N4C[C@H](C)C[C@H](N)C4)nc23)cn1 [Example 23, N-(4-((3S,5R)-3-Amino-5-methylpiperidin-1-yl)pyridin-3-yl)-3-(6-methoxypyridin-3-yl)furo[3,2-b]pyridine-5-carboxamide] | ≤ 0.01 | 1 to 10 | 0.01 to 0.05 |
| C[C@@H]1C[C@H](N)CN(c2ccncc2NC(=O)c2ccc3occ(C4CCN(C)CC4)c3n2)C1 [Example 24, N-(4-((3S,5R)-3-Amino-5-methylpiperidin-1-yl)pyridin-3-yl)-3-(1-methylpiperidin-4-yl)furo[3,2-b]pyridine-5-carboxamide] | ≤ 0.01 | > 2 | > 0.04 |
| C[C@@H]1C[C@H](N)CN(c2ccncc2NC(=O)c2ccc3occ(C4CCOCC4)c3n2)C1 [Example 25, N-(4-((3S,5R)-3-Amino-5-methylpiperidin-1-yl)pyridin-3-yl)-3-(tetrahydro-2H-pyran-4-yl)furo[3,2-b]pyridine-5-carboxamide] | ≤ 0.01 | 0.1 to 1 | ≤ 0.01 |
| C[C@@H]1C[C@H](N)CN(c2ccncc2NC(=O)c2ccc3occ(-c4cncc(C#N)c4)c3n2)C1 [Example 26, N-(4-((3S,5R)-3-Amino-5-methylpiperidin-1-yl)pyridin-3-yl)-3-(5-cyanopyridin-3-yl)furo[3,2-b]pyridine-5-carboxamide] | ≤ 0.01 | > 2 | 0.01 to 0.05 |
| C[C@@H]1C[C@H](N)CN(c2ccncc2NC(=O)c2ccc3occ(-c4cc(F)nc(F)c4)c3n2)C1 [Example 27, N-(4-((3S,5R)-3-Amino-5-methylpiperidin-1-yl)pyridin-3-yl)-3-(2,6-difluoropyridin-4-yl)furo[3,2-b]pyridine-5-carboxamide] | 0.01 to 0.05 | > 2 | > 0.04 |
| C[C@@H]1C[C@H](N)CN(c2ccncc2NC(=O)c2ccc3occ(-c4cnoc4)c3n2)C1 [Example 28, N-(4-((3S,5R)-3-Amino-5-methylpiperidin-1-yl)pyridin-3-yl)-3-(isoxazol-4-yl)furo[3,2-b]pyridine-5-carboxamide] | ≤ 0.01 | > 2 | 0.01 to 0.05 |
| C[C@@H]1C[C@H](N)CN(c2ccncc2NC(=O)c2ccc3occ(-c4cnn(C)c4)c3n2)C1 [Example 29, N-(4-((3S,5R)-3-Amino-5-methylpiperidin-1-yl)pyridin-3-yl)-3-(1-methyl-1H-pyrazol-4-yl)furo[3,2-b]pyridine-5-carboxamide] | ≤ 0.01 | 1 to 10 | 0.01 to 0.05 |
| C[C@@H]1C[C@H](N)CN(c2ccncc2NC(=O)c2ccc3occ(-c4cncnc4)c3n2)C1 [Example 30, N-(4-((3S,5R)-3-Amino-5-methylpiperidin-1-yl)pyridin-3-yl)-3-(pyrimidin-5-yl)furo[3,2-b]pyridine-5-carboxamide] | 0.01 to 0.05 | > 2 | > 0.04 |
| COc1cncc(-c2coc3ccc(C(=O)Nc4cnccc4N4C[C@H](C)C[C@H](N)C4)nc23)c1 [Example 32, N-(4-((3S,5R)-3-Amino-5-methylpiperidin-1-yl)pyridin-3-yl)-3-(5-methoxypyridin-3-yl)furo[3,2-b]pyridine-5-carboxamide] | ≤ 0.01 | 1 to 10 | ≤ 0.01 |
| C[C@@H]1C[C@H](N)CN(c2ccncc2NC(=O)c2ccc3occ(C4=COCCC4)c3n2)C1 [Example 33, N-(4-((3S,5R)-3-Amino-5-methylpiperidin-1-yl)pyridin-3-yl)-3-(3,4-dihydro-2H-pyran-5-yl)furo[3,2-b]pyridine-5-carboxamide] | ≤ 0.01 | ≤ 0.1 | ≤ 0.01 |
| C[C@H]1CN(c2ccncc2NC(=O)c2ccc3occ(C4CC4)c3n2)C[C@@H](N)[C@@H]1O [Example 34, N-(4-((3R,4R,5S)-3-Amino-4-hydroxy-5-methylpiperidin-1-yl)pyridin-3-yl)-3-cyclopropylfuro[3,2-b]pyridine-5-carboxamide] | ≤ 0.01 | ≤ 0.1 | ≤ 0.01 |
| C[C@@H]1C[C@H](N)CN(c2ccncc2NC(=O)c2ccc3occ(C4CC4)c3n2)C1 [Example 35, N-(4-((3S,5R)-3-Amino-5-methylpiperidin-1-yl)pyridin-3-yl)-3-cyclopropylfuro[3,2-b]pyridine-5-carboxamide] | ≤ 0.01 | ≤ 0.1 | ≤ 0.01 |
| CC(C)c1coc2ccc(C(=O)Nc3cnccc3N3CCC[C@H](N)C3)nc12 [Example 36, (S)-N-(4-(3-Aminopiperidin-1-yl)pyridin-3-yl)-3-isopropylfuro[3,2-b]pyridine-5-carboxamide] | ≤ 0.01 | ≤ 0.1 | ≤ 0.01 |
| N[C@H]1CCCN(c2ccncc2NC(=O)c2ccc3occ(-c4c(F)cccc4F)c3n2)C1 [Example 37, (S)-N-(4-(3-Aminopiperidin-1-yl)pyridin-3-yl)-3-(2,6-difluorophenyl)furo[3,2-b]pyridine-5-carboxamide] | ≤ 0.01 | ≤ 0.1 | ≤ 0.01 |
| CCCc1cc2nc(C(=O)Nc3cnccc3N3C[C@@H](N)[C@H](O)[C@@H](C)C3)ccc2s1 [Example 38, N-(4-((3R,4R,5S)-3-Amino-4-hydroxy-5-methylpiperidin-1-yl)pyridin-3-yl)-2-propylthieno[3,2-b]pyridine-5-carboxamide] | ≤ 0.01 | 0.1 to 1 | ≤ 0.01 |
| CC(C)c1cc2nc(C(=O)Nc3cnccc3N3C[C@@H](N)[C@H](O)[C@@H](C)C3)ccc2s1 [Example 39, N-(4-((3R,4R,5S)-3-Amino-4-hydroxy-5-methylpiperidin-1-yl)pyridin-3-yl)-2-isopropylthieno[3,2-b]pyridine-5-carboxamide] | ≤ 0.01 | ≤ 0.1 | ≤ 0.01 |
| C[C@H]1CN(c2ccncc2NC(=O)c2ccc3sc(-c4c(F)cccc4F)cc3n2)C[C@@H](N)[C@@H]1O [Example 40, N-(4-((3R,4R,5S)-3-Amino-4-hydroxy-5-methylpiperidin-1-yl)pyridin-3-yl)-2-(2,6-difluorophenyl)thieno[3,2-b]pyridine-5-carboxamide] | ≤ 0.01 | 0.1 to 1 | ≤ 0.01 |
| C[C@H]1CN(c2ccncc2NC(=O)c2ccc3sc(-c4ccccc4F)cc3n2)C[C@@H](N)[C@@H]1O [Example 41, N-(4-((3R,4R,5S)-3-Amino-4-hydroxy-5-methylpiperidin-1-yl)pyridin-3-yl)-2-(2-fluorophenyl)thieno[3,2-b]pyridine-5-carboxamide] | ≤ 0.01 | 0.1 to 1 | ≤ 0.01 |
